Source: patent US9138436B2, “Inhibitors of Bruton's tyrosine kinase” (PHARMACYCLICS LLC, priority 2011, dated 2015)

Biological target: Btk (Homo sapiens, UniProt Q06187)
Experiment: Btk in vitro inhibitory activity, acellular kinase assay (TR-FRET)
Format: biochemical
Protocol: Btk kinase activity is determined using a time-resolved fluorescence resonance energy transfer (TR-FRET) methodology. Measurements are performed in a reaction volume of 50 μL using 96-well assay plates. Kinase enzyme, inhibitor, ATP (at the Km for the kinase), and 1 μM peptide substrate (Biotin-AVLESEEELYSSARQ-NH2) are incubated in a reaction buffer composed of 20 mM Tris, 50 mM NaCl, MgCl2 (5-25 mM depending on the kinase), MnCl2 (0-10 mM), 1 mM DTT, 0.1 mM EDTA, 0.01% bovine serum albumin, 0.005% Tween-20, and 10% DMSO at pH 7.4 for one hour. The reaction is quenched by the addition of 1.2 equivalents of EDTA (relative to divalent cation) in 25 μL of 1× Lance buffer (Perkin-Elmer). Streptavidin-APC (Perkin-Elmer) and Eu-labeled p-Tyr100 antibody (Perkin-Elmer) in 1× Lance buffer are added in a 25 μL volume to give final concentrations of 100 nM and 2.5 nM, respectively, and the mixture is allowed to incubate for one hour. The TR-FRET signal is measured on a multimode plate reader with an excitation wavelength (λEx) of 330 nm and detection wavelengths (λEm) of 615 and 665 nm. Activity is determined by the ratio of the fluorescence at 665 nm to that at 615 nm. For each compound, enzyme activity is measured at various concentrations of compound. Negative control reactions are performed in the absence of inhibitor in replicates of six, and two no-enzyme controls were used to determine baseline fluorescence levels. Inhibition constants, Ki(app), are obtained using the program BatchKi (Kuzmic et al. (2000), Anal. Biochem. 286:45-50). IC50s are obtained according to the equation: IC50={Ki(app)/(1+[ATP]/Km^ATP)}+[E]total/2;
For all kinases, [ATP]=Km^ATP, [Btk]total=0.5 nM and [Lck]total=6 nM.

Sequence of Btk (Q06187 whole entry): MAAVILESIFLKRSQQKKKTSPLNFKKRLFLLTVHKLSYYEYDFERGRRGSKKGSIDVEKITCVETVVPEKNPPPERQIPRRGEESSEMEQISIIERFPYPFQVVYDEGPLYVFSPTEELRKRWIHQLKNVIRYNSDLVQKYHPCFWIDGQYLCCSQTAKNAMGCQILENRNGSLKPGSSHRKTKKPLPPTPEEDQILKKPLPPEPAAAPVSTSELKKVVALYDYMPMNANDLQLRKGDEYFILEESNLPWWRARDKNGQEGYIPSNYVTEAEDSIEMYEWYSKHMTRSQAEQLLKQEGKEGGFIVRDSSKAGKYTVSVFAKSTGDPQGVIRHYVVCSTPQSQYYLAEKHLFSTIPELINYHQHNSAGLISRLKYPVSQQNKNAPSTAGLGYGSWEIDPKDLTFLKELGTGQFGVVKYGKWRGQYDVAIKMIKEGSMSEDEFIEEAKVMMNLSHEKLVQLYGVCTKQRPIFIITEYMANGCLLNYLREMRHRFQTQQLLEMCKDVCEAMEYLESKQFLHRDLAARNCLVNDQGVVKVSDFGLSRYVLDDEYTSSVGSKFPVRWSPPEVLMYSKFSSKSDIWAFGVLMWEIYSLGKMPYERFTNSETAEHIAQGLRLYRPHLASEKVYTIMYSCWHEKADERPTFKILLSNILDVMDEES

Q: Which IC50 does the source give for `COCCN(C/C=C/C(=O)N1CCC[C@@H](n2nc(-c3ccc(Oc4ccccc4)cc3)c3c(N)ncnc32)C1)C1CC1` [Example 2s, (R,E)-1-(3-(4-amino-3-(4-phenoxyphenyl)-1H-pyrazolo[3,4-d]pyrimidin-1-yl)piperidin-1-yl)-4-(cyclopropyl(2-methoxyethyl)amino)but-2-en-1-one] here?
A: The IC50 was < 100 nM.

Q: Which IC50 does the source give for `Nc1ncnc2c1c(-c1ccc(Oc3ccccc3)cc1)nn2[C@@H]1CCN(C(=O)/C=C/CNC2CC2)C1` [Example 3a, (R,E)-1-(3-(4-amino-3-(4-phenoxyphenyl)-1H-pyrazolo[3,4-d]pyrimidin-1-yl)pyrrolidin-1-yl)-4-(cyclopropylamino)but-2-en-1-one] here?
A: Its IC50 is < 100 nM.

Q: `CN1CCC(N(C)C/C=C/C(=O)N2CC[C@@H](n3nc(-c4ccc(Oc5ccccc5)cc4)c4c(N)ncnc43)C2)CC1` [Example 2ac, (R,E)-1-(3-(4-amino-3-(4-phenoxyphenyl)-1H-pyrazolo[3,4-d]pyrimidin-1-yl)pyrrolidin-1-yl)-4-(methyl(1-methylpiperidin-4-yl)amino)but-2-en-1-one] was tested. Which IC50 did it give?
A: The IC50 was < 100 nM.

Q: How did the IC50 turn out when `CN(C/C=C/C(=O)N1CCC[C@@H](n2nc(-c3ccc(Oc4ccccc4)cc3)c3c(N)ncnc32)C1)C1CC1` [Example 2ae, (R,E)-1-(3-(4-amino-3-(4-phenoxyphenyl)-1H-pyrazolo[3,4-d]pyrimidin-1-yl)piperidin-1-yl)-4-(cyclopropyl(methyl)amino)but-2-en-1-one] was run?
A: Its IC50 is < 100 nM.

Q: Which IC50 does the source give for `Nc1ncnc2c1c(-c1ccc(Oc3ccccc3)cc1)nn2[C@@H]1CCN(C(=O)/C=C/CNC2CCCCC2)C1` [Example 2x, (R,E)-1-(3-(4-amino-3-(4-phenoxyphenyl)-1H-pyrazolo[3,4-d]pyrimidin-1-yl)pyrrolidin-1-yl)-4-(cyclohexylamino)but-2-en-1-one] here?
A: Its IC50 is < 100 nM.

Q: Which IC50 does the source give for `CN(C/C=C/C(=O)N1CCC(n2nc(-c3ccc(Oc4ccccc4)cc3)c3c(N)ncnc32)CC1)C1CC1` [Example 5b, (E)-1-(4-(4-amino-3-(4-phenoxyphenyl)-1H-pyrazolo[3,4-d]pyrimidin-1-yl)piperidin-1-yl)-4-(cyclopropyl(methyl)amino)but-2-en-1-one] here?
A: The IC50 was < 100 nM.

Q: With `CN(C/C=C/C(=O)N1CC[C@@H](n2nc(-c3ccc(Oc4ccccc4)cc3)c3c(N)ncnc32)C1)[C@H]1CCOC1` [Example 2d, (E)-1-((R)-3-(4-amino-3-(4-phenoxyphenyl)-1H-pyrazolo[3,4-d]pyrimidin-1-yl)pyrrolidin-1-yl)-4-(methyl((S)-tetrahydrofuran-3-yl)amino)but-2-en-1-one] as the compound, how does the IC50 read?
A: Its IC50 is < 100 nM.

Q: For `CN(C/C=C/C(=O)N1CC[C@@H](n2nc(-c3ccc(Oc4ccccc4)cc3)c3c(N)ncnc32)C1)c1ccccn1` [Example 1r, (R,E)-1-(3-(4-amino-3-(4-phenoxyphenyl)-1H-pyrazolo[3,4-d]pyrimidin-1-yl)pyrrolidin-1-yl)-4-(methyl(pyridin-2-yl)amino)but-2-en-1-one], which IC50 is on record?
A: Its IC50 is < 100 nM.

Q: Which IC50 does the source give for `CN(C(=O)/C=C/CN(C)C1CC1)c1cccc(-n2nc(-c3ccc(Oc4ccccc4)cc3)c3c(N)ncnc32)c1` [Example 7d, (E)-N-(3-(4-amino-3-(4-phenoxyphenyl)-1H-pyrazolo[3,4-d]pyrimidin-1-yl)phenyl)-4-(cyclopropyl(methyl)amino)-N-methylbut-2-enamide] here?
A: The IC50 was < 100 nM.

Q: How did the IC50 turn out when `CN(C/C=C/C(=O)N1CCC[C@@H](n2nc(-c3ccc(Oc4ccccc4)cc3)c3c(N)ncnc32)C1)C1CCCC1` [Example 2ai, (R,E)-1-(3-(4-amino-3-(4-phenoxyphenyl)-1H-pyrazolo[3,4-d]pyrimidin-1-yl)piperidin-1-yl)-4-(cyclopentyl(methyl)amino)but-2-en-1-one] was run?
A: The IC50 was < 100 nM.

Q: How did the IC50 turn out when `Nc1ncnc2c1c(-c1ccc(Oc3ccccc3)cc1)nn2[C@@H]1CCCN(C(=O)/C=C/CNc2ccccn2)C1` [Example 1u, (R,E)-1-(3-(4-amino-3-(4-phenoxyphenyl)-1H-pyrazolo[3,4-d]pyrimidin-1-yl)piperidin-1-yl)-4-(pyridin-2-ylamino)but-2-en-1-one] was run?
A: Its IC50 is < 100 nM.

Q: With `Nc1ncnc2c1c(-c1ccc(Oc3ccccc3)cc1)nn2[C@@H]1CCN(C(=O)/C=C/CN[C@H]2CCOC2)C1` [Example 2e, (E)-1-((R)-3-(4-amino-3-(4-phenoxyphenyl)-1H-pyrazolo[3,4-d]pyrimidin-1-yl)pyrrolidin-1-yl)-4-((S)-tetrahydrofuran-3-ylamino)but-2-en-1-one] as the compound, how does the IC50 read?
A: The IC50 was < 100 nM.

Q: `CN(C/C=C/C(=O)N1CCC[C@@H](n2nc(-c3ccc(Oc4ccccc4)cc3)c3c(N)ncnc32)C1)c1ccccn1` [Example 1t, (R,E)-1-(3-(4-amino-3-(4-phenoxyphenyl)-1H-pyrazolo[3,4-d]pyrimidin-1-yl)piperidin-1-yl)-4-(methyl(pyridin-2-yl)amino)but-2-en-1-one] was tested. Which IC50 did it give?
A: Its IC50 is < 100 nM.

Q: `CN(C/C=C/C(=O)N1CC[C@@H](n2nc(-c3ccc(Oc4ccccc4)cc3)c3c(N)ncnc32)C1)C1CC1` [Example 2u, (R,E)-1-(3-(4-amino-3-(4-phenoxyphenyl)-1H-pyrazolo[3,4-d]pyrimidin-1-yl)pyrrolidin-1-yl)-4-(cyclopropyl(methyl)amino)but-2-en-1-one] was tested. Which IC50 did it give?
A: Its IC50 is < 100 nM.

Q: How did the IC50 turn out when `CN1CCC(NC/C=C/C(=O)N2CC[C@@H](n3nc(-c4ccc(Oc5ccccc5)cc4)c4c(N)ncnc43)C2)CC1` [Example 2ad, (R,E)-1-(3-(4-amino-3-(4-phenoxyphenyl)-1H-pyrazolo[3,4-d]pyrimidin-1-yl)pyrrolidin-1-yl)-4-(1-methylpiperidin-4-ylamino)but-2-en-1-one] was run?
A: Its IC50 is < 100 nM.

Q: `CCN(C/C=C/C(=O)N1CCC[C@@H](n2nc(-c3ccc(Oc4ccccc4)cc3)c3c(N)ncnc32)C1)C1CC1` [Example 5a, (R,E)-1-(3-(4-amino-3-(4-phenoxyphenyl)-1H-pyrazolo[3,4-d]pyrimidin-1-yl)piperidin-1-yl)-4-(cyclopropyl(ethyl)amino)but-2-en-1-one] was tested. Which IC50 did it give?
A: Its IC50 is < 100 nM.

Q: `Nc1ncnc2c1c(-c1ccc(Oc3ccccc3)cc1)nn2[C@@H]1CCN(C(=O)/C=C/CNC2CCCC2)C1` [Example 2z, (R,E)-1-(3-(4-amino-3-(4-phenoxyphenyl)-1H-pyrazolo[3,4-d]pyrimidin-1-yl)pyrrolidin-1-yl)-4-(cyclopentylamino)but-2-en-1-one] was tested. Which IC50 did it give?
A: The IC50 was < 100 nM.

Q: With `CN(C(=O)/C=C/CN(C)C1CC1)c1ccc(-n2nc(-c3ccc(Oc4ccccc4)cc3)c3c(N)ncnc32)cc1` [Example 7b, (E)-N-(4-(4-amino-3-(4-phenoxyphenyl)-1H-pyrazolo[3,4-d]pyrimidin-1-yl)phenyl)-4-(cyclopropyl(methyl)amino)-N-methylbut-2-enamide] as the compound, how does the IC50 read?
A: Its IC50 is < 100 nM.

Q: Which IC50 does the source give for `CN(C/C=C/C(=O)N1CCC[C@@H](n2nc(-c3ccc(Oc4ccccc4)cc3)c3c(N)ncnc32)C1)[C@@H]1CCOC1` [Example 2h, (E)-1-((R)-3-(4-amino-3-(4-phenoxyphenyl)-1H-pyrazolo[3,4-d]pyrimidin-1-yl)piperidin-1-yl)-4-(methyl((R)-tetrahydrofuran-3-yl)amino)but-2-en-1-one] here?
A: The IC50 was < 100 nM.

Q: With `CN(C/C=C/C(=O)N1CCC[C@@H](n2nc(-c3ccc(Oc4ccccc4)cc3)c3c(N)ncnc32)C1)C1CCC1` [Example 2ak, (R,E)-1-(3-(4-amino-3-(4-phenoxyphenyl)-1H-pyrazolo[3,4-d]pyrimidin-1-yl)piperidin-1-yl)-4-(cyclobutyl(methyl)amino)but-2-en-1-one] as the compound, how does the IC50 read?
A: Its IC50 is < 100 nM.

Q: With `CN(C/C=C/C(=O)N1CCC[C@@H](n2nc(-c3ccc(Oc4ccccc4)cc3)c3c(N)ncnc32)C1)C1COC1` [Example 2m, (R,E)-1-(3-(4-amino-3-(4-phenoxyphenyl)-1H-pyrazolo[3,4-d]pyrimidin-1-yl)piperidin-1-yl)-4-(methyl(oxetan-3-yl)amino)but-2-en-1-one] as the compound, how does the IC50 read?
A: Its IC50 is < 100 nM.

Q: How did the IC50 turn out when `CN(C/C=C/C(=O)N1CC[C@@H](n2nc(-c3ccc(Oc4ccccc4)cc3)c3c(N)ncnc32)C1)C1CCOCC1` [Example 1k, (R,E)-1-(3-(4-amino-3-(4-phenoxyphenyl)-1H-pyrazolo[3,4-d]pyrimidin-1-yl)pyrrolidin-1-yl)-4-(methyl(tetrahydro-2H-pyran-4-yl)amino)but-2-en-1-one] was run?
A: The IC50 was < 100 nM.

Q: With `Nc1ncnc2c1c(-c1ccc(Oc3ccccc3)cc1)nn2[C@@H]1CCCN(C(=O)/C=C/CNC2CCOCC2)C1` [Example 1f, (R,E)-1-(3-(4-amino-3-(4-phenoxyphenyl)-1H-pyrazolo[3,4-d]pyrimidin-1-yl)piperidin-1-yl)-4-(tetrahydro-2H-pyran-4-ylamino)but-2-en-1-one] as the compound, how does the IC50 read?
A: Its IC50 is < 100 nM.

Q: Which IC50 does the source give for `Nc1ncnc2c1c(-c1ccc(Oc3ccccc3)cc1)nn2[C@@H]1CCCN(C(=O)/C=C/CN[C@@H]2CCOC2)C1` [Example 2i, (E)-1-((R)-3-(4-amino-3-(4-phenoxyphenyl)-1H-pyrazolo[3,4-d]pyrimidin-1-yl)piperidin-1-yl)-4-((R)-tetrahydrofuran-3-ylamino)but-2-en-1-one] here?
A: The IC50 was < 100 nM.

Q: With `CC(C)N(C/C=C/C(=O)N1CC[C@@H](n2nc(-c3ccc(Oc4ccccc4)cc3)c3c(N)ncnc32)C1)C1CC1` [Example 2q, (R,E)-1-(3-(4-amino-3-(4-phenoxyphenyl)-1H-pyrazolo[3,4-d]pyrimidin-1-yl)pyrrolidin-1-yl)-4-(cyclopropyl(isopropyl)amino)but-2-en-1-one] as the compound, how does the IC50 read?
A: The IC50 was < 100 nM.
